From patent publication US20170319552A1, “ATROPISOMERS OF TRIAZOLE DERIVATIVE” (ARDEA BIOSCIENCES, INC., priority 2016, published 2017)
Where two headings read alike, the source gives them in different places.

Key:
[1] = In vivo human metabolism, plasma and urine pharmacokinetics after single oral dose of racemic Compound (I)
Protocol: Plasma samples were collected prior to dosing (within 30 minutes before dosing) and at the following timepoints: 0.5, 1, 1.5, 2, 3, 4, 5, 6, 8, 10, 12, and 24 hours postdose. Urine was also collected. […] The supernatant was diluted with injection solvent and analyzed by HPLC with tandem mass spectrometry (LC/MS/MS). […] The calibration curves were linear over the concentration range between 5.00 ng/mL and 2000 ng/mL with a lower limit of quantification (LLOQ) of 5.00 ng/mL.
Using the above data, the following plasma pharmacokinetic parameters were calculated using validated Phoenix WinNonlin, version 6.3 (Pharsight Corporation, Mountain View, Calif.) and are shown (geometric mean 95% CI) in tables 11, 12, and 13 below.
• Cmax: Maximum observed concentration (μg/mL) • Tmax: Time of occurrence of maximum observed concentration (hr) • AUC0-24: Area under plasma concentration-vs-time curve, from time 0 to 24 hours postdose (μg·hr/mL) • C24: Concentration 24 hours post dose (μg/mL) • t1/2: Apparent terminal half-life (hr)

[2] = Solubility in water; format: physicochemical
[3] = biological target: T1, human URAT1 transporter (Homo sapiens, UniProt Q96S37); test: HEK293 hURAT1 stable cell-line uric acid uptake assay; format: cell-based; details: from IC50 values of table 5
T1 sequence (Q96S37 1-553): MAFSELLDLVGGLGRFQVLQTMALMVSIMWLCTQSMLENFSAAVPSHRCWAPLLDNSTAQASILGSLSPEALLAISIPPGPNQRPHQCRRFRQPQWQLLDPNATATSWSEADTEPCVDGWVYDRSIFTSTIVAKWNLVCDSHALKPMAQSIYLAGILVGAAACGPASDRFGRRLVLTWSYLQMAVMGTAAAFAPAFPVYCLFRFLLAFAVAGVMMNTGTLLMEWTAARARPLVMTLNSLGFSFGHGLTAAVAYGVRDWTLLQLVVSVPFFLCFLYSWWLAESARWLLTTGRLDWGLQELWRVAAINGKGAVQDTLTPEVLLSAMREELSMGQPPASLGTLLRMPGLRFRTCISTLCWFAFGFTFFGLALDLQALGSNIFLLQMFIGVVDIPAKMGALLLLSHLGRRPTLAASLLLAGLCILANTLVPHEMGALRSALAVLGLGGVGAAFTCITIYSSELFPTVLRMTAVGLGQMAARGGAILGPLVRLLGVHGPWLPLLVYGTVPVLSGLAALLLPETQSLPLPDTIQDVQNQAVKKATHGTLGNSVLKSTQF
From the text: Generation and Screening of HEK293 Stable Cell Lines—HEK293 human embryonic kidney cells (ATCC #CRL-1573, Manassas, Va.) were propagated in EMEM tissue culture medium as described by ATCC in an atmosphere of 5% CO2 and 95% air. HEK293 cells were transfected with the expression plasmids described above (pCMV6-neo URAT1 or pCMV6-neo OAT4) using Lipofectamine 2000 (Invitrogen, Carlsbad, Calif.), according to the manufacturer's instructions. The lipid/DNA transfection mixture was removed after five hours on the cells and fresh growth medium was added. After another 24 hr the cells were split into 10 cm plates. The next day G418 (Gibco, Carlsbad, Calif.) selection agent was added to the growth medium at a final concentration of 0.5 mg/ml. Fresh G418-containing medium was added every three days until drug-resistant colonies were obtained and also when the majority of mock-transfected cells were dead. […]
HEK293 hURAT 1 Stable Cell-Line Uric Acid Uptake Assay—Cells were seeded onto 96-well poly-D-lysine coated tissue culture plates at a density of 1.25×10^5 cells per well and grown at 37° C. overnight. […] Cells were lysed by adding 150 μl of MicroScint 20 scintillation fluid (PerkinElmer) to each well and radioactivity was counted the following day using a Beckman TopCount plate reader.
Calculation—The IC50 was calculated using Sigmoidal Dose-Response Model using XLFIT(IDBS, Alameda, Calif.).

[4] = In vitro metabolism, incubations with human liver microsomes; format: in vitro ADME
Protocol: Human liver microsomes (0.5 mg/mL; mixed gender, ultrapooled, BD Biosciences, catalog number 452117) were incubated at 37±1° C. in 0.2 mL (final volume) of incubation mixtures containing potassium phosphate buffer (100 mM, pH7.4), MgCl2 (3 mM), NADPH (1 mM), and the atropisomers (1, 10, or 50 μM) (all experiments performed in duplicate). Stock solutions of atropisomers were prepared with DMSO at 100 mM. The final concentration of DMSO in the incubation was at or less than 0.05%. Reactions were initiated by addition of NADPH solution and terminated at predetermined time point (30 min) by addition of stop reagent (300 μL chilled acetonitrile containing 0.1 μM of 7-hydroxycoumarin as an internal standard). After incubation, microsomal proteins were precipitated by centrifugation at 3300×g for 15 min at 4° C. Supernatant fractions were analyzed by LC-MS/MS.
HPLC mass spectrometer system: An API4000 triple quadrupole mass spectrometer equipped with electrospray ionization ion source was used for quantitation and operated in positive mode. The HPLC system consisted of a CTC Analytics PAL autosampler, an Agilent 1100 series degasser (G1379A), and an Agilent 1100 series binary pump (G1312A). […]
The formation of M3, M3c, M4 and M6 from each atropisomer in liver microsomal and recombinant CYP incubations was determined, based on the peak area ratio of analyte over internal standard (IS)

[5] = Atropisomer interconversion, thermal challenge in aqueous solvent (dilute sodium bicarbonate); format: physicochemical
Protocol: (§1) The individual atropisomers of Compound (I), atropisomer 1 and atropisomer 2 (elution order from normal-phase chiral chromatography) were exposed to various conditions, including thermal challenge in both organic and aqueous media and exposure to simulated biological conditions, to ascertain whether they readily interconvert.
Atropisomer 1 was dissolved in dilute aqueous sodium bicarbonate solution. Atropisomer 2 was dissolved in dilute aqueous sodium bicarbonate solution. […] Samples of the resulting solutions were exposed to room temperature (rt), 60° C., and 100° C. for four days. After four days, the samples were concentrated to dryness (SpeedVac evaporator—DNA120, property H001630), redissolved in acetonitrile and analyzed by high performance liquid chromatography (AGMS02 Agilent 1100) on a normal phase amylose-based chiral column (ChiralPak IA-3, 3 μm, 100×4.6 mm, column 244), using isocratic elution and UV detection at 226 nm (see example 1). […] Sample chromatograms at t0, 60° C., and 100° C. after four days, are depicted in FIG. 3A, FIG. 3B and FIG. 3C respectively.

[6] = Atropisomer interconversion, thermal challenge in organic solvent (acetonitrile); format: physicochemical
Protocol: as §1
Samples of each separate atropisomers were held at 60° C. for four days and then analyzed by high performance liquid chromatography (AGMS02 Agilent 1100) on a normal phase amylose-based chiral column (ChiralPak IA-3, 3 μm, 100×4.6 mm, column 244), using isocratic elution and UV detection at 226 nm (see example 1).

[7] = plasma, geometric mean, single oral 400 mg racemic Compound (I), human
[8] = Plasma Concentration (Mean), single oral 400 mg racemic Compound (I), human
[9] = Urine PK Parameters (Geometric mean, CI 95%), single oral 400 mg racemic Compound (I), human

SMILES: O=C(O)CSc1nnc(Br)n1-c1ccc(C2CC2)c2ccccc12 (racemic) [Compound (I), 2-(5-bromo-4-(4-cyclopropylnaphthalen-1-yl)-4H-1,2,4-triazol-3-ylthio)acetic acid]
- concentration at 0.5 h ([1]; male, human, plasma, po, 400 mg, 0.5 hr postdose, single oral 400 mg Compound (I) racemic mixture, adult male subjects): 157 ng/mL
- concentration at 1 h ([1]; male, human, plasma, po, 400 mg, 1 hr postdose, single oral 400 mg Compound (I) racemic mixture, adult male subjects): 3900 ng/mL
- concentration at 1.5 h ([1]; male, human, plasma, po, 400 mg, 1.5 hr postdose, single oral 400 mg Compound (I) racemic mixture, adult male subjects): 7860 ng/mL
- concentration at 2 h ([1]; male, human, plasma, po, 400 mg, 2 hr postdose, single oral 400 mg Compound (I) racemic mixture, adult male subjects): 9380 ng/mL
- concentration at 3 hr ([1]; male, human, plasma, po, 400 mg, 3 hr postdose, single oral 400 mg Compound (I) racemic mixture, adult male subjects): 11400 ng/mL
- concentration at 4 hr ([1]; male, human, plasma, po, 400 mg, 4 hr postdose, single oral 400 mg Compound (I) racemic mixture, adult male subjects): 9080 ng/mL
- concentration at 5 hr ([1]; male, human, plasma, po, 400 mg, 5 hr postdose, single oral 400 mg Compound (I) racemic mixture, adult male subjects): 6980 ng/mL
- concentration at 6 hr ([1]; male, human, plasma, po, 400 mg, 6 hr postdose, single oral 400 mg Compound (I) racemic mixture, adult male subjects): 3810 ng/mL
- concentration at 8 hr ([1]; male, human, plasma, po, 400 mg, 8 hr postdose, single oral 400 mg Compound (I) racemic mixture, adult male subjects): 1530 ng/mL
- concentration at 10 hr ([1]; male, human, plasma, po, 400 mg, 10 hr postdose, single oral 400 mg Compound (I) racemic mixture, adult male subjects): 815 ng/mL
- concentration at 12 hr ([1]; male, human, plasma, po, 400 mg, 12 hr postdose, single oral 400 mg Compound (I) racemic mixture, adult male subjects): 503 ng/mL
- concentration at 24 h ([1]; male, human, plasma, po, 400 mg, 24 hr postdose, single oral 400 mg Compound (I) racemic mixture, adult male subjects): 84 ng/mL
- AUC(0-t) ([1]; male, human, plasma, po, 400 mg, Plasma Concentration (Mean), single oral 400 mg racemic Compound (I), human, read-out: AUC0-24): 54900 ng·h/mL
- Cmax ([1]; male, human, plasma, po, 400 mg, Plasma Concentration (Mean), single oral 400 mg racemic Compound (I), human, read-out: Cmax): 13500 ng/mL
- Cmax ([1]; male, human, plasma, po, 400 mg, plasma, geometric mean, single oral 400 mg racemic Compound (I), human, read-out: Cmax: Maximum observed concentration): 12800 ng/mL
- half-life ([1]; male, human, plasma, po, 400 mg, plasma, geometric mean, single oral 400 mg racemic Compound (I), human, read-out: t1/2: Apparent terminal half-life (converted)): 251 min
- concentration at 0 h ([1]; male, human, plasma, po, 400 mg, time 0 hr (prior to dosing), single oral 400 mg Compound (I) racemic mixture, adult male subjects): 0 ng/mL
- Tmax ([1]; male, human, plasma, po, 400 mg, read-out: Tmax: Time of occurrence of maximum observed concentration): 3 h
- AUC0-24: Area under plasma concentration-vs-time curve, from time 0 to 24 hours postdose [1, 7]: 52.9 µg·h/mL
- Solubility in water [2]: low

SMILES: O=C(O)CSc1nnc(Br)n1-c1ccc(C2CC2)c2ccccc12 (single isomer, unassigned) [Atropisomer 2, (+)-2-(5-bromo-4-(4-cyclopropylnaphthalen-1-yl)-4H-1,2,4-triazol-3-ylthio)acetic acid]
- Greater inhibition of URAT1 than atropisomer 1 [3]: approximately 4 fold
- M3c formation [4]: only trace levels
- % Atropisomer 1 ([5]; 60° C. 4 days): 0.4%
- % Atropisomer 2 ([5]; 60° C. 4 days): 99.6%
- % Atropisomer 1 ([5]; 100° C. 4 days): 0.6%
- % Atropisomer 2 ([5]; 100° C. 4 days): 99.4%
- % Atropisomer 1 ([5]; rt, 4 days): 0.4%
- % Atropisomer 2 ([5]; rt, 4 days): 99.6%
- % Atropisomer 1 ([5]; t0 (control)): 0.4%
- % Atropisomer 2 ([5]; t0 (control)): 99.6%
- % Atropisomer 1 ([6]; acetonitrile 0.25 mg/mL, t0): 1.0%
- % Atropisomer 2 ([6]; acetonitrile 0.25 mg/mL, t0): 99.0%
- % Atropisomer 1 ([6]; acetonitrile, 60° C. 4 days): 1.0%
- % Atropisomer 2 ([6]; acetonitrile, 60° C. 4 days): 99.0%
- Mean plasma concentration ([1]; 0.5 hr postdose, single oral 400 mg Compound (I) racemic mixture, adult male subjects): 0.108 µg/mL
- Mean plasma concentration ([1]; 1 hr postdose, single oral 400 mg Compound (I) racemic mixture, adult male subjects): 2.573 µg/mL
- Mean plasma concentration ([1]; 1.5 hr postdose, single oral 400 mg Compound (I) racemic mixture, adult male subjects): 4.975 µg/mL
- Mean plasma concentration ([1]; 2 hr postdose, single oral 400 mg Compound (I) racemic mixture, adult male subjects): 5.765 µg/mL
- Mean plasma concentration ([1]; 3 hr postdose, single oral 400 mg Compound (I) racemic mixture, adult male subjects): 6.921 µg/mL
- Mean plasma concentration ([1]; 4 hr postdose, single oral 400 mg Compound (I) racemic mixture, adult male subjects): 5.577 µg/mL
- Mean plasma concentration ([1]; 5 hr postdose, single oral 400 mg Compound (I) racemic mixture, adult male subjects): 4.314 µg/mL
- Mean plasma concentration ([1]; 6 hr postdose, single oral 400 mg Compound (I) racemic mixture, adult male subjects): 2.322 µg/mL
- Mean plasma concentration ([1]; 8 hr postdose, single oral 400 mg Compound (I) racemic mixture, adult male subjects): 0.918 µg/mL
- Mean plasma concentration ([1]; 10 hr postdose, single oral 400 mg Compound (I) racemic mixture, adult male subjects): 0.495 µg/mL
- Mean plasma concentration ([1]; 12 hr postdose, single oral 400 mg Compound (I) racemic mixture, adult male subjects): 0.309 µg/mL
- Mean plasma concentration ([1]; 24 hr postdose, single oral 400 mg Compound (I) racemic mixture, adult male subjects): 0.063 µg/mL
- AUC0-24 [1, 8]: 33.8 µg·h/mL
- Cmax [1, 8]: 8200 ng/mL
- Ae0-24 [1, 9]: 101 mg
- CLR0-24 [1, 9]: 51.6 mL/min
- AUC0-24: Area under plasma concentration-vs-time curve, from time 0 to 24 hours postdose [1, 7]: 32.7 µg·h/mL
- C24 h: Concentration 24 hours post dose [1, 7]: 0.0508 µg/mL
- Cmax: Maximum observed concentration [1, 7]: 7.92 µg/mL
- t1/2: Apparent terminal half-life [1, 7]: 4.67 h
- Tmax: Time of occurrence of maximum observed concentration ([1]; plasma, single oral 400 mg racemic Compound (I), human): 3.00 h
- Mean plasma concentration ([1]; time 0 hr (prior to dosing), single oral 400 mg Compound (I) racemic mixture, adult male subjects): 0 µg/mL
